Experiments:
Assay type in all cases: in vivo, mouse
ARC CSPG-ECM = test: Intranasal PZ6005 in diet-induced obese mice: WFA immunostaining of CSPG-ECM within the ARC; details: 14 days; for ARC CSPG-ECM area, lower than the controls / ARC CSPG-ECM intensity, decrease: 12-week-HFHS-diet-fed obese mice
Method: For detection of aggrecan, GFP, HABP, parvalbumin, mCherry, versican, tenascin-C, HAPLN1, neurocan, phosphacan, brevican, WFA and WFA-FITC sections were incubated at room temperature for 1 h in blocking buffer (0.3% Triton X-100, 5% normal goat serum, Gibco, ThermoFisher, MA, 0.02% sodium azide) and then overnight at 4° C. in 1% blocking buffer containing either rabbit anti-aggrecan (1:1000, AB1031, Millipore, MA), chicken anti-GFP (1:2000; ab13970, Abcam, Cambridge, UK), Biotinylated HABP (1:100, 385911, Burlington, MA), sheep anti-parvalbumin (1:1000), in house), rabbit anti-dsRed (1:2000, 600-401-379, Rockland, PA), rabbit anti-versican (1:1000, AB1033, Millipore, MA), tenascin-C (1:500, M1-B4, Developmental Studies Hybridoma Bank, Iowa), HAPLN1 (1:500, 9/30/8-A-4, Developmental Studies Hybridoma Bank, Iowa), neurocan (1:300, 1F6-S, Developmental Studies Hybridoma Bank, Iowa), phophacan (1:300, 3F8, Developmental Studies Hybridoma Bank, Iowa), brevican (1:500, 610895, BD Transduction Laboratories), biotinylated WFA (1:2000, L1516; Sigma-Aldrich, MO), WFA-FITC (1:2000, FL-1351-2, Vector Laboratories, CA), rabbit anti PGP9.5 (1:1000, 14730-1-AP, Proteintech, IL), guinea pig anti AgRP (1:500, AS506, Antibodies Australia, Melbourne, AUS). After washing with PBS-T (0.3% Triton X-100 in PBS, +0.02% sodium azide), sections were incubated with goat anti-chicken Alexa Fluor 488 (ab150169, Abcam, Cambridge, UK), goat anti-rabbit Alexa Fluor-488, 595, 647 (ab150077, ab150080, ab150083, Abcam, Cambridge, UK), donkey anti-sheep Alexa Fluor 594 (ab150180, Abcam, Cambridge, UK), Alexa Fluor 594, 647 Streptavidin (405240, BioLegend, CA)—conjugated secondary antibodies in 5% blocking buffer for 2 h at room temperature. […] Brightness and contrast in the colour merged images have been adjusted to aid in the analysis of co-incidence.
All image quantification was performed in Image J (NIH) software (NIH, MA). Raw images underwent background subtraction using a rolling ball algorithm to minimize background and any potential variance in tissue autofluorescence. To quantify area and intensity of the CSPG-ECM within each brain region (ARC, VMH or RSG cortex) images were thresholded and binarized to create a region of interest (ROI) mask of only the CSPG-ECM. For each brain area, CSPG-ECM ROI area (μm^2) and intensity (sum of all pixel intensities within the ROI) was calculated. This process was automated to minimise bias and to account for differences in brain nuclei size across multiple images. Brain nuclei were defined in accordance with the Paxinos and Franklin mouse brain atlas (http://labs.gaidi.ca/mouse-brain-atlas/). The area and intensity of CSPG-ECM within each region was normalised to the respective control.
Conscious mice were restrained by scruffing and inverted parallel to the floor with the chin at ˜180-degree angle with the neck. Using a 10 μL tip, a pipettor was loaded with 5 μl of vehicle (ddH2O) or fluorosamine (1 mg/animal in 20 μl or 5 mg/animal in 20 μl). The tip of the filled pipettor was placed near the left nostril at a 45-degree angle, and the drug was ejected to form a small 5 μl droplet at tip for the mouse to inhale. Immediately after the mouse inhaled the first droplet the remaining solution was ejected to form another small droplet for the mouse to inhale through the same nostril. The mouse was held in this position for 15 seconds before the procedure was repeated in the right nostril.

[1] = tested on: insulin induced p-AKT signalling in the ARC; test: I.C.V. fluorosamine in obese mice: insulin-induced p-AKT in the ARC; details: following 10 days of treatment
Method: (§1) Under isoflurane anaesthetic 12-week HFHS fed C57BL/6J or AgRP-Cas9 mice were implanted stereotaxically with guide cannulas into the right lateral ventricle (0.2 mm posterior, 1.0 mm lateral from bregma). Guide cannula was positioned 1.3 mm above the injection site (1 mm ventral to the surface of the skull). AgRP-Cas9 mice were treated with either AAV-gScrambled or AAV-gIR and underwent guide cannula placement 7 days post AAV administration. Mice were administered I.C.V. vehicle (ddH2O), fluorosamine (100 μg/animal/day or 250 μgl/animal/day) in a volume of 2 μl/animal and all compounds were delivered approximately 1 h before lights off […].

[2] = I.C.V. fluorosamine in obese AgRP-Cas9 mice given AAV-gScrambled or AAV-gIR; details: 100 μg/animal I.C.V. daily for 10 days
Method: (§2) Metabolic measurements were undertaken in the Melbourne Mouse Metabolic Phenotyping Platform (The University of Melbourne, Australia). Glucose tolerance tests were performed on 6 h fasted conscious mice respectively by injecting D-glucose (2 mg/g of lean body mass and 1 mg/g lean mass for db/db and HFHS+STZ mice) into the peritoneal cavity and measuring glucose in tail blood immediately before and at 15, 30, 45, 60, 90 and 120 min after injection using an Accu-Check glucometer (Roche, Germany). The areas under glucose excursion curves were determined and expressed as mmol/1×min. Fasted (12 h fast) plasma insulin or glucose levels were determined using a Rat/Mouse Insulin ELISA (EZRMI-13K, Merck Millipore, CA) or an Accu-Check glucometer respectively. The HOMA-IR was calculated using the equation [(glucose×insulin)/405]. Adiposity was measured using TD-NMR minispec (Bruker Optics Inc., Billerica, MA).
(§3) Mice were acclimated for 24 h and then monitored for 48 h in an environmentally controlled Promethion Metabolic Screening System (Sable Systems International, NV) fitted with indirect open circuit calorimetry, food consumption and activity monitors to measure activity, caloric intake and energy expenditure. Respiratory quotients were calculated as the ratio of CO2 production over O2 consumption respiratory exchange ratio and energy expenditure was calculated using the Weir equation (Kcal h-1=60×(0.003941×VO2+0.001106×VCO2). To account for difference in body mass/composition energy expenditure was analysed and adjusted using ANCOVA using scripts available at the National Mouse Metabolic Phenotyping Centers (MMPC, Nashville, TN, USA) Energy Expenditure Analysis Page (https://www.mmpc.org/shared/regression.aspx).
as §1

[3] = I.C.V. fluorosamine in obese mice: metabolic assessment; details: I.C.V. daily for 10 days
Method: as §2, §3, §1

[4] = control AAV-gScrambled AgRP-Cas9 mice

## CC(=O)NC1C(OC(C)=O)OC(COC(C)=O)[C@@H](F)C1OC(C)=O (some centres unmarked) [fluorosamine, per-O-acetylated-4-F-N-acetylglucosamine]
ARC CSPG-ECM; I.N. 1 mg/animal/day
  ARC CSPG-ECM area, lower than the controls: 13.54±1.03%
  ARC CSPG-ECM intensity, decrease: 15.94±7.17%
ARC CSPG-ECM; I.N. 5 mg/animal/day (highest dose)
  ARC CSPG-ECM intensity, decrease: 30.16±1.52%
ARC CSPG-ECM; I.N. 5 mg/animal/day
  ARC CSPG-ECM area, lower than the controls: 13.59±4.09%
ARC CSPG-ECM; intranasal, diet-induced obese mice, dose not given
  ARC neurofibrosis: successfully attenuated ARC neurofibrosis
[1]
  insulin induced p-AKT signalling in the ARC: enhanced insulin induced p-AKT signalling in the ARC
[2]; AAV-IR AgRP-Cas9 mice (AgRP insulin receptor disrupted)
  positive metabolic outcomes of treatment: mitigated, at least in part
[2]; [4]
  adiposity: reduced adiposity
  body weight: promoted weight loss
  caloric intake: attenuated caloric intake
  energy expenditure: enhanced energy expenditure independently of ambulatory activity
  glycaemic control: improved glycaemic control
[3]
  adiposity: reduced adiposity
  body weight: promoted weight loss
  energy expenditure: enhanced energy expenditure independently of ambulatory activity
  food intake: supressed food intake through enhanced satiety
  glucose tolerance: improved glucose tolerance

— patent publication US20260174677A1, “METHODS OF TREATING INSULIN RESISTANCE AND ASSOCIATED DISORDERS” (The University of Melboune, priority 2022, published 2026)
